Source: patent US20240279237A1, “FUSED BICYCLIC HETEROARYL COMPOUNDS USEFUL AS NLRP3 INHIBITORS” (Hoffmann-La Roche Inc., priority 2021, published 2024)
Where a name gives a salt, the structure may show the parent alone.

Target: T1, NLRP3 (Homo sapiens, UniProt Q96P20)
T1 construct: Seed THP-1 cells (25,000 cells/well) containing 1.0 μg/ml LPS in 40 μl of RPMI medium; host or cells: THP-1 cells
Test: THP-1 Cells Pyroptosis Assay
Assay type: cell-based
Conditions: THP-1 cells with 1.0 μg/ml LPS; compound 3 hours; nigericin 5 μM 1 hr; resazurin readout
Description: The cells were routinely passaged and grown to confluency (˜10^6 cells/ml). On the day of the experiment, THP-1 cells were harvested and resuspended into RPMI medium (without FBS). The cells were then counted and viability (>90%) checked by Trypan blue (Sigma #T8154). […] To this diluted cell solution was added LPS (Sigma #L4524) to give a 1 μg/ml Final Assay Concentration (FAC). 40 μl of the final preparation was aliquoted into each well of a 96-well plate. The plate thus prepared was used for compound screening.
The following method step-by-step assay was followed for compound screening. • 1. […] Incubate for 3 hours at 37° C., 5% CO2 • 4. Add 5 μl nigericin (Sigma #N7143) (FAC 5 μM) to all wells • 5. Incubate for 1 hr at 37° C., 5% CO2 • 6. At the end of the incubation period, spin plates at 300×g for 3 mins and remove supernatant • 7. Then add 50 μl of resazurin (Sigma #R7017) (FAC 100 μM resazurin in RPMI medium without FBS) and incubate plates for a further 1-2 hours at 37° C. and 5% CO2 • 8.

T1 sequence (Q96P20 whole entry): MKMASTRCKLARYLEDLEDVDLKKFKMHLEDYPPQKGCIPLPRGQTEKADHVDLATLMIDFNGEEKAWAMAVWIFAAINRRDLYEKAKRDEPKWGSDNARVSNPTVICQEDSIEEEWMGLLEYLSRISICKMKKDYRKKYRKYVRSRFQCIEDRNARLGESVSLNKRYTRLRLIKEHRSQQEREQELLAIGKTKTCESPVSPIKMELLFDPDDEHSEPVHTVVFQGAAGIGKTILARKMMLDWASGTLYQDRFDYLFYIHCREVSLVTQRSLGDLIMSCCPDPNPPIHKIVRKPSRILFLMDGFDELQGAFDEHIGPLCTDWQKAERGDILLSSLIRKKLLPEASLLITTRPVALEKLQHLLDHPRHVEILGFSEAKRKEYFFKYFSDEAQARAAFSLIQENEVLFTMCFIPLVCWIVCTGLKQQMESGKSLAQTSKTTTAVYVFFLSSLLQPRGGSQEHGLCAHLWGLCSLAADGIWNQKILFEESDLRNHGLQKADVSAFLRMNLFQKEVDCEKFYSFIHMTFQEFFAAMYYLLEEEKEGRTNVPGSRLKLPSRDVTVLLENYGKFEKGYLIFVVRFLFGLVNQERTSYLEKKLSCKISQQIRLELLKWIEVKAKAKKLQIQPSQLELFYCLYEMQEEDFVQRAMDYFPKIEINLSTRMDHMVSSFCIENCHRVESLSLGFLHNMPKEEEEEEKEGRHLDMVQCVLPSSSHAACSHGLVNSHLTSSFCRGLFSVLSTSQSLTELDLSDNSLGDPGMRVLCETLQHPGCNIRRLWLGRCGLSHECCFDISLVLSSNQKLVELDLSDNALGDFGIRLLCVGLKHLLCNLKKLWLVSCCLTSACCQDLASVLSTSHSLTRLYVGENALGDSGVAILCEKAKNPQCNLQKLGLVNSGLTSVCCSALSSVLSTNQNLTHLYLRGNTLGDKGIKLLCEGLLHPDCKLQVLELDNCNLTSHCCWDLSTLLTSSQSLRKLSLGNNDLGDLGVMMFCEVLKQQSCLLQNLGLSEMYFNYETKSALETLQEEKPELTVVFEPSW

Compound | IC50 [nM]
Cc1cc(Cl)cc(O)c1-c1ccc2oc(NC3CCC(CO)N(C)C3)nc2n1 (centres unmarked) [Example 87, 5-Chloro-2-[2-[[6-(hydroxymethyl)-1-methyl-3-piperidyl]amino]oxazolo[4,5-b]pyridin-5-yl]-3-methyl-phenol;2,2,2-trifluoroacetic acid] | 75.6
Cc1cc(Cl)cc(O)c1-c1ccc2oc(N[C@@H]3CCCN(C4CCC4)C3)nc2n1 [Example 47, 5-Chloro-2-[2-[[(3R)-1-cyclobutyl-3-piperidyl]amino]oxazolo[4,5-b]pyridin-5-yl]-3-methyl-phenol] | 1.2
CCN1C[C@H](O)C[C@@H](Nc2nc3nc(-c4c(C)cc(C#N)cc4O)ccc3o2)C1 [Example 71, 4-[2-[[(3R,5R)-1-Ethyl-5-hydroxy-3-piperidyl]amino]oxazolo[4,5-b]pyridin-5-yl]-3-hydroxy-5-methyl-benzonitrile] | 1.1
CCN1CCCC(c2nc3nc(-c4c(C)cc(C(F)(F)F)cc4O)ccc3o2)C1 (centres unmarked) [Example 138, 2-[2-(1-Ethyl-3-piperidyl)oxazolo[4,5-b]pyridin-5-yl]-3-methyl-5-(trifluoromethyl)phenol] | 234
Cc1cc(C(F)(F)F)cc(O)c1-c1ccc2oc(N3CCC(CO)CC3)nc2n1 [Example 78, 2-[2-[4-(Hydroxymethyl)-1-piperidyl]oxazolo[4,5-b]pyridin-5-yl]-3-methyl-5-(trifluoromethyl)phenol] | 58.3
Cc1cc(C(F)(F)F)cc(O)c1-c1ccc2oc(N3CCCC(O)C3)nc2n1 (single isomer, unassigned) [Example 3B, (3S or 3R)-1-[5-[2-hydroxy-6-methyl-4-(trifluoromethyl)phenyl]oxazolo[4,5-b]pyridin-2-yl]piperidin-3-ol] | 28.6
3-Methyl-2-[2-[[(2S)-1-methylazetidin-2-yl]methylamino]oxazolo[4,5-b]pyridin-5-yl]-5-(trifluoromethyl)phenol or 3-methyl-2-[2-[[(2R)-1-methylazetidin-2-yl]methylamino]oxazolo[4,5-b]pyridin-5-yl]-5-(trifluoromethyl)phenol [Example 66B] | 256
CNC1CCCC(Nc2nc3nc(-c4c(C)cc(C(F)(F)F)cc4O)ccc3o2)C1 (mixture of isomers) [Example 7, 3-Methyl-2-[2-[[3-(methylamino)cyclohexyl]amino]oxazolo[4,5-b]pyridin-5-yl]-5-(trifluoromethyl)phenol] | 82.1
Cc1cc(Cl)cc(O)c1-c1ccc2oc(N[C@@H]3CCCN(C)C3)nc2n1 [Example 44, 5-Chloro-3-methyl-2-[2-[[(3R)-1-methyl-3-piperidyl]amino]oxazolo[4,5-b]pyridin-5-yl]phenol] | 0.7
Cc1cc(Cl)cc(O)c1-c1ccc2oc([C@@H]3CCC(=O)NC3)nc2n1 (single isomer, unassigned) [Example 73B, (5R)-5-[5-(4-Chloro-2-hydroxy-6-methyl-phenyl)oxazolo[4,5-b]pyridin-2-yl]piperidin-2-one or (5S)-5-[5-(4-chloro-2-hydroxy-6-methyl-phenyl)oxazolo[4,5-b]pyridin-2-yl]piperidin-2-one] | 78.7
Cc1cc(C(F)(F)F)cc(O)c1-c1ccc2oc(N3CCOC(CO)C3)nc2n1 (racemic) [Example 5, (rac)-[2-[2-(Hydroxymethyl)morpholin-4-yl]oxazolo[4,5-b]pyridin-5-yl]-3-methyl-5-(trifluoromethyl)phenol] | 31.9
CN1CCC[C@@H](Nc2nc3nc(-c4c(O)cc(F)cc4C(F)(F)F)ccc3o2)C1 [Example 126, 5-Fluoro-2-[2-[[(3R)-1-methyl-3-piperidyl]amino]oxazolo[4,5-b]pyridin-5-yl]-3-(trifluoromethyl)phenol;2,2,2-trifluoroacetic acid] | 3.9
CCN1CCC[C@@H](Nc2nc3nc(-c4c(C)cccc4O)ccc3o2)C1 [Example 125, 2-[2-[[(3R)-1-Ethyl-3-piperidyl]amino]oxazolo[4,5-b]pyridin-5-yl]-3-methyl-phenol] | 3
Cc1cc(Cl)cc(O)c1-c1ccc2oc(N[C@@H]3CCCN(C[C@@H]4CC[C@H]4O)C3)nc2n1 (racemic) [Example 118B, 5-chloro-2-[2-[[(3R)-1-[[rac trans-2-hydroxycyclobutyl]methyl]-3-piperidyl]amino]oxazolo[4,5-b]pyridin-5-yl]-3-methyl-phenol or 5-chloro-2-[2-[[(3R)-1-[[rac cis-2-hydroxycyclobutyl]methyl]-3-piperidyl]amino]oxazolo[4,5-b]pyridin-5-yl]-3-methyl-phenol] | 30.6
Cc1cc(C#N)cc(O)c1-c1ccc2oc(NC3CCCN4C[C@@H](O)CC34)nc2n1 (stereo partly drawn) [Example 115, 3-Hydroxy-5-methyl-4-[2-[[(2S)-2-hydroxy-1,2,3,5,6,7,8,8a-octahydroindolizin-8-yl]amino]oxazolo[4,5-b]pyridin-5-yl]benzonitrile;2,2,2-trifluoroacetic acid] | 48.5
Cc1cc(Cl)cc(O)c1-c1ccc2oc([C@H]3CCC(=O)NC3)nc2n1 (single isomer, unassigned) [Example 73A, (5S)-5-[5-(4-Chloro-2-hydroxy-6-methyl-phenyl)oxazolo[4,5-b]pyridin-2-yl]piperidin-2-one or (5R)-5-[5-(4-Chloro-2-hydroxy-6-methyl-phenyl)oxazolo[4,5-b]pyridin-2-yl]piperidin-2-one] | 18.7
Cc1cc(Cl)cc(O)c1-c1ccc2oc(N[C@@H]3CCCN(CCO)C3)nc2n1 [Example 93, 5-Chloro-2-[2-[[(3R)-1-(2-hydroxyethyl)-3-piperidyl]amino]oxazolo[4,5-b]pyridin-5-yl]-3-methyl-phenol] | 2.1
Cc1cc(Cl)cc(O)c1-c1ccc2oc(N[C@@H]3CCC[C@H]3N(C)C)nc2n1 [Example 112, 5-Chloro-2-[2-[[(1R,2R)-2-(dimethylamino)cyclopentyl]amino]oxazolo[4,5-b]pyridin-5-yl]-3-methyl-phenol] | 6.6
Cc1cc(C(F)(F)F)cc(O)c1-c1ccc2oc(NCC34CC(CN3)C4)nc2n1 [Example 43, 2-[2-(2-Azabicyclo[2.1.1]hexan-1-ylmethylamino)oxazolo[4,5-b]pyridin-5-yl]-3-methyl-5-(trifluoromethyl)phenol;dihydrochloride] | 30.5
5-Chloro-2-[2-[[(3R)-1-ethyl-3-piperidyl]amino]oxazolo[4,5-b]pyridin-5-yl]-3-(trifluoromethoxy)phenol;2,2,2-trifluoroacetic acid [Example 114] | 1.1
CCN1CCC[C@@H](Nc2nc3nc(-c4c(C)cc(C(F)(F)F)cc4O)cc(C#N)c3o2)C1 [Example 117, 2-[[(3R)-1-Ethyl-3-piperidyl]amino]-5-[2-hydroxy-6-methyl-4 (trifluoromethyl)phenyl]-oxazolo[4,5-b]pyridine-7-carbonitrile] | 5.2
CCN1CCC[C@@H](Nc2nc3nc(-c4c(O)cc(Cl)cc4C#N)ccc3o2)C1 [Example 23, 5-Chloro-2-[2-[[(3R)-1-ethyl-3-piperidyl]amino]oxazolo[4,5-b]pyridin-5-yl]-3-hydroxy-benzonitrile] | 4.2
Cc1cc(Cl)cc(O)c1-c1ccc2oc(N[C@@H]3CCCN(CCCO)C3)nc2n1 [Example 95, 5-Chloro-2-[2-[[(3R)-1-(3-hydroxypropyl)-3-piperidyl]amino]oxazolo[4,5-b]pyridin-5-yl]-3-methyl-phenol] | 11.2
CCN1CCC2CCN(c3nc4nc(-c5c(C)cc(C#N)cc5O)ccc4o3)C2C1 (single isomer, unassigned) [Example 72A, 4-[2-[(3aS,7aR)-6-Ethyl-3,3a,4,5,7,7a-hexahydro-2H-pyrrolo[2,3-c]pyridin-1-yl]oxazolo[4,5-b]pyridin-5-yl]-3-hydroxy-5-methyl-benzonitrile or 4-[2-[(3aR,7aS)-6-ethyl-3,3a,4,5,7,7a-hexahydro-2H-pyrrolo[2,3-c]pyridin-1-yl]oxazolo[4,5-b]pyridin-5-yl]-3-hydroxy-5-methyl-benzonitrile] | 1
CCN1CCC[C@@H](Nc2nc3nc(-c4c(C)cc(C(F)(F)F)cc4O)cc(NC)c3o2)C1 [Example 103, 2-[2-[[(3R)-1-Ethyl-3-piperidyl]amino]-7-(methylamino)oxazolo[4,5-b]pyridin-5-yl]-3-methyl-5-(trifluoromethyl)phenol] | 4.6
CCN1CCC[C@@H](Nc2nc3nc(-c4c(C)cc(OC(F)(F)F)cc4O)ccc3o2)C1 [Example 137, 2-[2-[[(3R)-1-Ethyl-3-piperidyl]amino]oxazolo[4,5-b]pyridin-5-yl]-3-methyl-5-(trifluoromethoxy)phenol;2,2,2-trifluoroacetic acid] | 4.8
Cc1cc(C(F)(F)F)cc(O)c1-c1ccc2oc(N3CCCC(CO)C3)nc2n1 (centres unmarked) [Example 77, 2-[2-[3-(Hydroxymethyl)-1-piperidyl]oxazolo[4,5-b]pyridin-5-yl]-3-methyl-5-(trifluoromethyl)phenol] | 135
CCN1CCC[C@@H](Nc2nc3nc(-c4c(O)cc(C#N)cc4Cl)ccc3o2)C1 [Example 107, 3-Chloro-4-[2-[[(3R)-1-ethyl-3-piperidyl]amino]oxazolo[4,5-b]pyridin-5-yl]-5-hydroxy-benzonitrile;2,2,2-trifluoroacetic acid] | 8.8
2-[2-[[(3S or 3R)-1-Ethyl-3-piperidyl]amino]-1H-imidazo[4,5-b]pyridin-5-yl]-3-methyl-5-(trifluoromethyl)phenol [Example 18B] | 392
